The target of one test is TAF1-BD2 (Homo sapiens, UniProt P21675). In words: TAF1-BD2 TR-FRET Binding Assay. Particulars: read-out: TAF1-BD2 HTRF IC50. Background: In TR-FRET formats the signal depends on donor and acceptor labels being close together.
The target in another test is TAF1-BD1 (Homo sapiens, UniProt P21675). In words: TAF1-BD1 TR-FRET Binding Assay. The conditions noted are these: read-out: TAF1-BD1 HTRF IC50.

Consider `CCOC(=O)c1c(C)[nH]c2c(=O)n(C)cc(C#CC(O)(c3cccc(N(C)C)c3)C(F)(F)F)c12` (stereo not drawn) [Example 39, ethyl 4-[3-[3-(dimethylamino)phenyl]-4,4,4-trifluoro-3-hydroxy-but-1-ynyl]-2,6-dimethyl-7-oxo-1H-pyrrolo[2,3-c]pyridine-3-carboxylate], for which the IC50 on TAF1-BD2 is 76.9 nM; at TAF1-BD1, 525 nM.

Take `COc1ccccc1COC(=O)c1c(C)[nH]c2c(=O)n(C)cc(C#CC(C)(C)O)c12` [Example 113, (2-methoxyphenyl)methyl-4-(3-hydroxy-3-methyl-but-1-ynyl)-2,6-dimethyl-7-oxo-1H-pyrrolo[2,3-c]pyridine-3-carboxylate]: the IC50 on TAF1-BD2 was 24 nM; at TAF1-BD1, 123 nM.

Consider `Cc1ccccc1COC(=O)c1c(C)[nH]c2c(=O)n(C)cc(C#CC(O)(c3ccccc3)C(F)(F)F)c12` (stereo not drawn) [Example 108, o-tolylmethyl 2,6-dimethyl-7-oxo-4-(4,4,4-trifluoro-3-hydroxy-3-phenyl-but-1-ynyl)-1H-pyrrolo[2,3-c]pyridine-3-carboxylate], for which the values for the IC50 on TAF1-BD2 and at TAF1-BD1 were 1260 nM and 3350 nM, respectively.

Consider `Cc1nnc(-c2c(C)[nH]c3c(=O)n(C)cc(C#CC(O)(c4ccccc4)C(F)(F)F)c23)o1` (stereo not drawn) [Example 184, 2,6-dimethyl-3-(5-methyl-1,3,4-oxadiazol-2-yl)-4-(4,4,4-trifluoro-3-hydroxy-3-phenyl-but-1-ynyl)-1H-pyrrolo[2,3-c]pyridin-7-one], for which the IC50 on TAF1-BD2 was 62.7 nM; at TAF1-BD1, 327 nM.

`Cc1cc([C@](C)(O)C#Cc2cn(C)c(=O)c3[nH]cc(C(=O)OCC(C)C)c23)no1` [Example 54, isobutyl 4-[(3R)-3-hydroxy-3-(5-methylisoxazol-3-yl)but-1-ynyl]-6-methyl-7-oxo-1H-pyrrolo[2,3-c]pyridine-3-carboxylate]: the IC50 came to 122 nM at TAF1-BD2 and 179 nM on TAF1-BD1.

Take `CCOC(=O)c1c(C)[nH]c2c(=O)n(C)cc(C#CC(O)(CC)c3ccccc3)c12` (stereo not drawn) [Example 75, ethyl 4-(3-hydroxy-3-phenyl-pent-1-ynyl)-2,6-dimethyl-7-oxo-1H-pyrrolo[2,3-c]pyridine-3-carboxylate]: the IC50 worked out at 76.5 nM at TAF1-BD2 and 427 nM at TAF1-BD1.

In the case of `CCOC(=O)c1c(C)[nH]c2c(=O)n(C)cc(C#CC3(O)CCC3)c12` [Example 21, ethyl 4-[2-(1-hydroxycyclobutyl)ethynyl]-2,6-dimethyl-7-oxo-1H-pyrrolo[2,3-c]pyridine-3-carboxylate], the IC50 at TAF1-BD2 came out at 61.1 nM; on TAF1-BD1, 407 nM.

As for `CCOC(=O)c1c(C)[nH]c2c(=O)n(C)cc(C#CC3(O)CCN(CC)CC3)c12` [Example 8, ethyl 4-[2-(1-ethyl-4-hydroxy-4-piperidyl)ethynyl]-2,6-dimethyl-7-oxo-1H-pyrrolo[2,3-c]pyridine-3-carboxylate], the IC50 on TAF1-BD2 was determined as 425 nM; at TAF1-BD1, 7850 nM.

Regarding `Cc1[nH]c2c(=O)n(C)cc(C#CC(C)(C)O)c2c1C(=O)OCc1ccccc1C#N` [Example 110, (2-cyanophenyl)methyl 4-(3-hydroxy-3-methyl-but-1-ynyl)-2,6-dimethyl-7-oxo-1H-pyrrolo[2,3-c]pyridine-3-carboxylate], the IC50 at TAF1-BD2 turned out to be 29.4 nM; on TAF1-BD1, 116 nM.

Regarding `CCOC(=O)c1c(C)[nH]c2c(=O)n(C)cc(C#CC(O)(c3ccccc3)C(F)(F)F)c12` (single isomer, unassigned) [Example 91a, ethyl 2,6-dimethyl-7-oxo-4-(4,4,4-trifluoro-3-hydroxy-3-phenyl-but-1-ynyl)-1H-pyrrolo[2,3-c]pyridine-3-carboxylate], the figures for the IC50 on TAF1-BD2 and at TAF1-BD1 were 206 nM and 749 nM, respectively.

Consider `Cc1[nH]c2c(=O)n(C)cc(C#CC(O)(c3ccccc3)C(F)(F)F)c2c1-c1nnc(C(C)(C)C)o1` (stereo not drawn) [Example 188, 3-(5-tert-butyl-1,3,4-oxadiazol-2-yl)-2,6-dimethyl-4-(4,4,4-trifluoro-3-hydroxy-3-phenyl-but-1-ynyl)-1H-pyrrolo[2,3-c]pyridin-7-one], for which the IC50 at TAF1-BD2 amounted to 86.2 nM; on TAF1-BD1 it was 385 nM.

Consider `Cc1[nH]c2c(=O)n(C)cc(C#CC(C)(O)C3CC3)c2c1-c1nnco1` (stereo not drawn) [Example 182, 4-(3-cyclopropyl-3-hydroxy-but-1-ynyl)-2,6-dimethyl-3-(1,3,4-oxadiazol-2-yl)-1H-pyrrolo[2,3-c]pyridin-7-one], for which the IC50 on TAF1-BD2 was 53.5 nM; at TAF1-BD1, 285 nM.

In the case of `CCOC(=O)c1c(C)[nH]c2c(=O)n(C)cc(C#CC(C)(O)c3cccc(F)c3)c12` (stereo not drawn) [Example 33, ethyl 4-[3-(3-fluorophenyl)-3-hydroxy-but-1-ynyl]-2,6-dimethyl-7-oxo-1H-pyrrolo[2,3-c]pyridine-3-carboxylate], the values for the IC50 on TAF1-BD2 and at TAF1-BD1 were 60 nM and 218 nM, respectively.

Consider `C=CCCn1cc(C#C[C@@](C)(O)c2cc(C)on2)c2c(C(=O)OCC(C)C)c(C)[nH]c2c1=O` [Example 125, isobutyl 6-but-3-enyl-4-[(3R)-3-hydroxy-3-(5-methylisoxazol-3-yl)but-1-ynyl]-2-methyl-7-oxo-1H-pyrrolo[2,3-c]pyridine-3-carboxylate], for which the IC50 at TAF1-BD2 was found to be 169 nM; at TAF1-BD1 it was 3050 nM.

For `CCOC(=O)c1c(C)[nH]c2c(=O)n(C)cc(C#CC(C)(C)NC(C)=O)c12` [Example 22, ethyl 4-(3-acetamido-3-methyl-but-1-ynyl)-2,6-dimethyl-7-oxo-1H-pyrrolo[2,3-c]pyridine-3-carboxylate], the IC50 worked out at 523 nM on TAF1-BD2 and 804 nM at TAF1-BD1.

As for `Cc1[nH]c2c(=O)n(C)cc(C#CC(C)(O)C3CC3)c2c1-c1nnc(C2CCOC2)o1` (stereo not drawn) [Example 175, 4-(3-cyclopropyl-3-hydroxy-but-1-ynyl)-2,6-dimethyl-3-(5-tetrahydrofuran-3-yl-1,3,4-oxadiazol-2-yl)-1H-pyrrolo[2,3-c]pyridin-7-one], the results for the IC50 on TAF1-BD2 and on TAF1-BD1 were 46.7 nM and 248 nM, respectively.

On to `CCOC(=O)c1c(C)[nH]c2c(=O)n(C)cc(C#Cc3cncn3C)c12` [Example 56, ethyl 2,6-dimethyl-4-[2-(3-methylimidazol-4-yl)ethynyl]-7-oxo-1H-pyrrolo[2,3-c]pyridine-3-carboxylate], for which the IC50 on TAF1-BD2 is 129 nM; at TAF1-BD1 it was 337 nM.

For `Cc1[nH]c2c(=O)n(C)cc(C#CC(C)(O)C3CC3)c2c1C(=O)OC(C)C(C)C` (stereo not drawn) [Example 141, 1,2-dimethylpropyl 4-(3-cyclopropyl-3-hydroxy-but-1-ynyl)-2,6-dimethyl-7-oxo-1H-pyrrolo[2,3-c]pyridine-3-carboxylate], the values for the IC50 on TAF1-BD2 and on TAF1-BD1 were 75.6 nM and 244 nM, respectively.

`CCOC(=O)c1c(C)[nH]c2c(=O)n(C)cc(C#C[C@@](C)(O)c3ncccn3)c12` [Example 6, ethyl 4-[(3R)-3-hydroxy-3-pyrimidin-2-yl-but-1-ynyl]-2,6-dimethyl-7-oxo-1H-pyrrolo[2,3-c]pyridine-3-carboxylate]: the results for the IC50 on TAF1-BD2 and at TAF1-BD1 were 147 nM and 989 nM, respectively.

With `CCOC(=O)c1c(C)[nH]c2c(=O)n(C)cc(C#CC(C)(O)C3CCOCC3)c12` (stereo not drawn) [Example 87, ethyl 4-(3-hydroxy-3-tetrahydropyran-4-yl-but-1-ynyl)-2,6-dimethyl-7-oxo-1H-pyrrolo[2,3-c]pyridine-3-carboxylate], the IC50 on TAF1-BD2 was 181 nM; on TAF1-BD1, 770 nM.

As for `CCOC(=O)c1c(C)[nH]c2c(=O)n(C)cc(C#CC(O)(c3cccc(-c4cc[nH]n4)c3)C(F)(F)F)c12` (stereo not drawn) [Example 44, ethyl 2,6-dimethyl-7-oxo-4-[4,4,4-trifluoro-3-hydroxy-3-[3-(1H-pyrazol-3-yl)phenyl]but-1-ynyl]-1H-pyrrolo[2,3-c]pyridine-3-carboxylate], the 50% inhibitory concentration (IC50) on TAF1-BD2 amounted to 17 nM; on TAF1-BD1, 226 nM.

For `CCOC(=O)c1c(C)[nH]c2c(=O)n(C)cc(C#CC(C)(O)c3cccnc3)c12` (stereo not drawn) [Example 28, ethyl 4-[3-hydroxy-3-(3-pyridyl)but-1-ynyl]-2,6-dimethyl-7-oxo-1H-pyrrolo[2,3-c]pyridine-3-carboxylate], the IC50 came out at 52.5 nM at TAF1-BD2 and 234 nM on TAF1-BD1.

With `Cc1[nH]c2c(=O)n(C)cc(C#CC(C)(C)O)c2c1C(=O)OC(C)(C)CCN` [Example 165, (3-amino-1,1-dimethyl-propyl) 4-(3-hydroxy-3-methyl-but-1-ynyl)-2,6-dimethyl-7-oxo-1H-pyrrolo[2,3-c]pyridine-3-carboxylate], the IC50 at TAF1-BD2 amounted to 21.7 nM; at TAF1-BD1 it was 551 nM.

Take `Cc1nnc(-c2c(C)[nH]c3c(=O)n(C)cc(C#CC(C)(O)C4CC4)c23)o1` (stereo not drawn) [Example 192, 4-(3-cyclopropyl-3-hydroxy-but-1-ynyl)-2,6-dimethyl-3-(5-methyl-1,3,4-oxadiazol-2-yl)-1H-pyrrolo[2,3-c]pyridin-7-one]: the figures for the IC50 on TAF1-BD2 and at TAF1-BD1 were 61.6 nM and 335 nM, respectively.

With `Cc1[nH]c2c(=O)n(C)cc(C#CC(O)(c3ccccc3)C(F)(F)F)c2c1C(=O)OCC(C)C` (stereo not drawn) [Example 130, isobutyl 2,6-dimethyl-7-oxo-4-(4,4,4-trifluoro-3-hydroxy-3-phenyl-but-1-ynyl)-1H-pyrrolo[2,3-c]pyridine-3-carboxylate], the IC50 at TAF1-BD2 turned out to be 280 nM; at TAF1-BD1, 1540 nM.

Turning to `Cc1[nH]c2c(=O)n(C)cc(C#CC(O)(c3ccccc3)C(F)(F)F)c2c1-c1nnc(CO)o1` (stereo not drawn) [Example 205, 3-(5-(hydroxymethyl)-1,3,4-oxadiazol-2-yl)-2,6-dimethyl-4-(4,4,4-trifluoro-3-hydroxy-3-phenyl-but-1-ynyl)-1H-pyrrolo[2,3-c]pyridin-7-one], the IC50 is 88.8 nM on TAF1-BD2 and 334 nM on TAF1-BD1.

In the case of `Cc1[nH]c2c(=O)n(C)cc(C#CC(C)(O)CO)c2c1C(=O)OCC(C)C` (stereo not drawn) [Example 127, isobutyl 4-(3,4-dihydroxy-3-methyl-but-1-ynyl)-2,6-dimethyl-7-oxo-1H-pyrrolo[2,3-c]pyridine-3-carboxylate], the IC50 on TAF1-BD2 is 68.4 nM; at TAF1-BD1, 727 nM.

The IC50 is the point on the concentration scale where inhibition reaches its midpoint.

The values are drawn from US10202378B2, “Therapeutic compounds and uses thereof” (GENENTECH, INC., priority 2015, dated 2019).
